Test results published in PMC2217464 (The Journal of General Physiology, 2004).
Residue numbers refer to the chain shown, from its start.

Assays:
[1] = biological target: T1, mouse bestrophin-2 (mBest2) (Mus musculus, UniProt Q8BGM5); assay: whole-cell patch clamp, block of Cl- current; format: cell-based
T1 sequence (Q8BGM5 1-508): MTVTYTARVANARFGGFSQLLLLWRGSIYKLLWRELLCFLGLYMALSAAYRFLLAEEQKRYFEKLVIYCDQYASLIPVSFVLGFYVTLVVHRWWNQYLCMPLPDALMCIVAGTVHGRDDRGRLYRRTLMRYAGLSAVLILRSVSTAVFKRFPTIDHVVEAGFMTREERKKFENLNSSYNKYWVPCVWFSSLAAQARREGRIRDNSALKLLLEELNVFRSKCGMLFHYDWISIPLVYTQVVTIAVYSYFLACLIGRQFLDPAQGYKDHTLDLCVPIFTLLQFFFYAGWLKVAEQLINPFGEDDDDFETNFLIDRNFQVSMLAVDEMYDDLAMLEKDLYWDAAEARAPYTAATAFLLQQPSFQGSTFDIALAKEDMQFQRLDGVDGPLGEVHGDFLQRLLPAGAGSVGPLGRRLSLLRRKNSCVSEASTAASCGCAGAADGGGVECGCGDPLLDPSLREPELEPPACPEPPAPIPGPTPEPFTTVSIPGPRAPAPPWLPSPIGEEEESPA

[2] = biological target: T2, mouse bestrophin-2 (mBest2) (Mus musculus, UniProt Q8BGM5, S79C); assay: whole-cell patch clamp, block of Cl- current; format: cell-based
T2 sequence (Q8BGM5 1-508 S79C): T1 sequence (Q8BGM5 1-508) with S79C

Row | Structure (SMILES) | IC50 [1] [µM] | IC50 [2] [µM]
1 | N#CS [SCN^−] | 12000 | –
2 | O=S(=O)(O)c1cc(N=C=S)ccc1/C=C/c1ccc(N=C=S)cc1S(=O)(=O)O [DIDS] | 3.1 ± 0.3 | 14.6 ± 3.6
